Usually IC50 stands for the point on the concentration scale where inhibition reaches its midpoint.

Where a SMILES comes first, the peptide text is derived from it. Bridges are numbered along the chain shown (N, C = ends). [ ]: non-standard residue; d: D form. The star is where a group is joined. Phe(3-CF3) = N[C@@H](Cc1cccc(C(F)(F)F)c1)C(=O)O; Phe(4-CF3) = N[C@@H](Cc1ccc(C(F)(F)F)cc1)C(=O)O; Phe(4-COOH) = N[C@@H](Cc1ccc(C(=O)O)cc1)C(=O)O; Bip = N[C@@H](Cc1ccc(-c2ccccc2)cc1)C(=O)O; NH(CH2)14COOH = O=C(O)CCCCCCCCCCCCCCN*; Phe(3-Me) = Cc1cccc(C[C@H](N)C(=O)O)c1; NH(CH2)12COOH = O=C(O)CCCCCCCCCCCCN*; Val(3-OH) = CC(C)(O)[C@H](N)C(=O)O; Cha = N[C@@H](CC1CCCCC1)C(=O)O; Cit = NC(=O)NCCC[C@H](N)C(=O)O; Carboxymethyl = O=C(O)C*; NMeA = CN[C@@H](C)C(=O)O; Dab = NCC[C@H](N)C(=O)O; AEEA = NCCOCCOCC(=O)O; CF3 = FC(F)(F)*

Eleven compounds from patent US20260070945A1, “MACROCYCLIC IMMUNOMODULATORS” (Bristol-Myers Squibb Company, priority 2022, published 2026) can be followed below.

T1 sequence (Q15116 25-288): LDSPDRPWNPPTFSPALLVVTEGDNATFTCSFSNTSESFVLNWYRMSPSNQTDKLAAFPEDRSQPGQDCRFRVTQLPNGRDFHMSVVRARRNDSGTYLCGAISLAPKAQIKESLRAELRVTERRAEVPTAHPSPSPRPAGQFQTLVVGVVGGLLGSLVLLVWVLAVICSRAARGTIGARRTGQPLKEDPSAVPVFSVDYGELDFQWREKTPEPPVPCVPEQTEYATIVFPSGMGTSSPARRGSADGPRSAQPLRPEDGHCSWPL

The experiment addresses T1, PD-1/PD-L1 interaction (PE-labeled human PD-L1-Ig binding to Jurkat cell line over-expressing human PD-1) (Homo sapiens, UniProt Q15116).
T1 construct: expressed in transfected cells; host or cells: Jurkat
Description: Jurkat-PD-1 Cell Binding High-Content Screening Assay (CBA). The settings on record: PE-labeled PD-L1-Ig 20 nM final, Jurkat-hPD-1 cells; read-out: Jurkat HPD1 PDL1 IC50. Put shortly:
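Read-out: high-content imaging of cell-bound PE fluorescence, with Hoechst 33342 nuclear counterstain after paraformaldehyde fixation. Before labeled ligand (20 nM final, 1 h) was added, compound sat on the cells for 2 h at 37 °C in DMEM/10% FCS.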
For the compound `CC(=O)NCCCC[C@@H]1NC(=O)[C@H](C(C)(C)O)NC(=O)[C@H](CC2CCCCC2)NC(=O)[C@H](CCN)NC(=O)[C@@H](CC(C)C)NC(=O)[C@H](C)N(C)C(=O)[C@H](CCC(N)=O)NC(=O)[C@H](Cc2ccc(-c3ccccc3)cc2)NC(=O)[C@H](Cc2ccc(C(=O)O)cc2)NC(=O)[C@H](Cc2cccc(C)c2)NC(=O)[C@H](CC(=O)O)NC(=O)[C@H](Cc2ccc(OCC(=O)O)cc2)NC(=O)[C@H](Cc2ccc(C(F)(F)F)cc2)NC(=O)CSC[C@@H](C(=O)N[C@@H](CCN)C(=O)NCCCCCCCCCCCCC(=O)O)NC1=O` [Example 2619] ({CH2CO}-[Phe(4-CF3)]Y(Carboxymethyl)D[Phe(3-Me)][Phe(4-COOH)][Bip]Q[NMeA][dL][Dab][Cha][Val(3-OH)]K(Ac)C[Dab]-{NH(CH2)12COOH}; thioether N-14), the IC50 amounted to 0.0439 µM.
In the case of `CC(=O)NCCCC[C@@H]1NC(=O)[C@H](C(C)(C)O)NC(=O)[C@H](CC2CCCCC2)NC(=O)[C@H](CCN)NC(=O)[C@@H](CC(C)C)NC(=O)[C@H](C)N(C)C(=O)[C@H](CCC(N)=O)NC(=O)[C@H](Cc2ccc(-c3ccccc3)cc2)NC(=O)[C@H](Cc2ccc(C(=O)O)cc2)NC(=O)[C@H](Cc2cccc(C)c2)NC(=O)[C@H](CC(=O)O)NC(=O)[C@H](Cc2ccc(OCC(=O)O)cc2)NC(=O)[C@H](Cc2ccc(OC(F)(F)F)cc2)NC(=O)CSC[C@@H](C(=O)N[C@@H](CCN)C(=O)NCCCCCCCCCCCCC(=O)O)NC1=O` [Example 2620] ({CH2CO}-Y(CF3)Y(Carboxymethyl)D[Phe(3-Me)][Phe(4-COOH)][Bip]Q[NMeA][dL][Dab][Cha][Val(3-OH)]K(Ac)C[Dab]-{NH(CH2)12COOH}; thioether N-14) it was 0.072 µM.
Take `CC(=O)NCCCC[C@@H]1NC(=O)[C@H](C(C)(C)O)NC(=O)[C@H](CC2CCCCC2)NC(=O)[C@H](CCN)NC(=O)[C@@H](CC(C)C)NC(=O)[C@H](C)N(C)C(=O)[C@H](CCC(N)=O)NC(=O)[C@H](Cc2ccc(-c3ccccc3)cc2)NC(=O)[C@H](Cc2ccc(C(F)(F)F)cc2)NC(=O)[C@H](Cc2cccc(C)c2)NC(=O)[C@H](CC(=O)O)NC(=O)[C@H](Cc2ccc(OCC(=O)O)cc2)NC(=O)[C@H](Cc2ccc(OCC(=O)O)cc2)NC(=O)CSC[C@@H](C(=O)N[C@@H](CCN)C(=O)NCCCCCCCCCCCCC(=O)O)NC1=O` [Example 2621] ({CH2CO}-Y(Carboxymethyl)Y(Carboxymethyl)D[Phe(3-Me)][Phe(4-CF3)][Bip]Q[NMeA][dL][Dab][Cha][Val(3-OH)]K(Ac)C[Dab]-{NH(CH2)12COOH}; thioether N-14): the IC50 came out at 0.0224 µM.
The result for `CC(=O)NCCCC[C@@H]1NC(=O)[C@H](C(C)(C)O)NC(=O)[C@H](CC2CCCCC2)NC(=O)[C@H](CCN)NC(=O)[C@@H](CC(C)C)NC(=O)[C@H](C)N(C)C(=O)[C@H](CCC(N)=O)NC(=O)[C@H](Cc2ccc(-c3ccccc3)cc2)NC(=O)[C@H](Cc2ccc(OCC(=O)O)cc2)NC(=O)[C@H](Cc2cccc(C(F)(F)F)c2)NC(=O)[C@H](CC(=O)O)NC(=O)[C@H](Cc2ccc(OCC(=O)O)cc2)NC(=O)[C@H](Cc2ccc(C(F)(F)F)cc2)NC(=O)CSC[C@@H](C(=O)N[C@@H](CCN)C(=O)NCCCCCCCCCCCCC(=O)O)NC1=O` [Example 2622] ({CH2CO}-[Phe(4-CF3)]Y(Carboxymethyl)D[Phe(3-CF3)]Y(Carboxymethyl)[Bip]Q[NMeA][dL][Dab][Cha][Val(3-OH)]K(Ac)C[Dab]-{NH(CH2)12COOH}; thioether N-14) reads 0.0839 µM.
The result for `CC(=O)NCCCC[C@@H]1NC(=O)[C@H](C(C)(C)O)NC(=O)[C@H](CC2CCCCC2)NC(=O)[C@H](CCN)NC(=O)[C@@H](CC(C)C)NC(=O)[C@H](C)N(C)C(=O)[C@H](CCCNC(N)=O)NC(=O)[C@H](Cc2ccc(-c3ccccc3)cc2)NC(=O)[C@H](Cc2ccc(OCC(=O)O)cc2)NC(=O)[C@H](Cc2cccc(C(F)(F)F)c2)NC(=O)[C@H](CC(=O)O)NC(=O)[C@H](Cc2ccc(OCC(=O)O)cc2)NC(=O)[C@H](CCN)NC(=O)CSC[C@@H](C(=O)N[C@@H](CCN)C(=O)NCCCCCCCCCCCCCCC(=O)O)NC1=O` [Example 2623] ({CH2CO}-[Dab]Y(Carboxymethyl)D[Phe(3-CF3)]Y(Carboxymethyl)[Bip][Cit][NMeA][dL][Dab][Cha][Val(3-OH)]K(Ac)C[Dab]-{NH(CH2)14COOH}; thioether N-14) reads 0.0994 µM; that for `CC(=O)NCCCC[C@@H]1NC(=O)[C@H](C(C)(C)O)NC(=O)[C@H](CC2CCCCC2)NC(=O)[C@H](CCN)NC(=O)[C@@H](CC(C)C)NC(=O)[C@H](C)N(C)C(=O)[C@H](CCCNC(N)=O)NC(=O)[C@H](Cc2ccc(-c3ccccc3)cc2)NC(=O)[C@H](Cc2ccc(OCC(=O)O)cc2)NC(=O)[C@H](Cc2cccc(C(F)(F)F)c2)NC(=O)[C@H](CC(=O)O)NC(=O)[C@H](Cc2ccc(OCC(=O)O)cc2)NC(=O)[C@H](Cc2ccc(OCC(=O)O)cc2)NC(=O)CSC[C@@H](C(=O)N[C@@H](CCN)C(=O)NCCCCCCCCCCCCCCC(=O)O)NC1=O` [Example 2624] ({CH2CO}-Y(Carboxymethyl)Y(Carboxymethyl)D[Phe(3-CF3)]Y(Carboxymethyl)[Bip][Cit][NMeA][dL][Dab][Cha][Val(3-OH)]K(Ac)C[Dab]-{NH(CH2)14COOH}; thioether N-14), 0.077 µM; that for `CC(C)C[C@H]1NC(=O)[C@H](C)N(C)C(=O)[C@H](CCCNC(N)=O)NC(=O)[C@H](Cc2ccc(-c3ccccc3)cc2)NC(=O)[C@H](Cc2ccc(OCC(=O)O)cc2)NC(=O)[C@H](Cc2cccc(C(F)(F)F)c2)NC(=O)[C@H](CC(=O)O)NC(=O)[C@H](Cc2ccc(OCC(=O)O)cc2)NC(=O)[C@H](Cc2ccc(OCC(=O)O)cc2)NC(=O)CSC[C@@H](C(=O)N[C@@H](CCN)C(=O)NCCCCCCCCCCCCCCC(=O)O)NC(=O)[C@H](CCC(=O)O)NC(=O)[C@H](C(C)(C)O)NC(=O)[C@H](CC2CCCCC2)NC(=O)[C@H](CCN)NC1=O` [Example 2625] ({CH2CO}-Y(Carboxymethyl)Y(Carboxymethyl)D[Phe(3-CF3)]Y(Carboxymethyl)[Bip][Cit][NMeA][dL][Dab][Cha][Val(3-OH)]EC[Dab]-{NH(CH2)14COOH}; thioether N-14), 0.19 µM.
The result for `CC(=O)NCCCC[C@@H]1NC(=O)[C@H](C(C)(C)O)NC(=O)[C@H](CC2CCCCC2)NC(=O)[C@H](CCN)NC(=O)[C@@H](CC(C)C)NC(=O)[C@H](C)N(C)C(=O)[C@H](CCC(N)=O)NC(=O)[C@H](Cc2ccc(-c3ccccc3)cc2)NC(=O)[C@H](Cc2ccc(OCC(=O)O)cc2)NC(=O)[C@H](Cc2cccc(C(F)(F)F)c2)NC(=O)[C@H](CC(=O)O)NC(=O)[C@H](Cc2ccc(OCC(=O)O)cc2)NC(=O)[C@H](CC(C)C)NC(=O)CSC[C@@H](C(=O)N[C@@H](CCN)C(=O)NCCCCCCCCCCCCC(=O)O)NC1=O` [Example 2626] ({CH2CO}-LY(Carboxymethyl)D[Phe(3-CF3)]Y(Carboxymethyl)[Bip]Q[NMeA][dL][Dab][Cha][Val(3-OH)]K(Ac)C[Dab]-{NH(CH2)12COOH}; thioether N-14) reads 0.009 µM; that for `CC(C)C[C@H]1NC(=O)[C@H](C)N(C)C(=O)[C@H](CCC(N)=O)NC(=O)[C@H](Cc2ccc(-c3ccccc3)cc2)NC(=O)[C@H](Cc2ccc(OCC(=O)O)cc2)NC(=O)[C@H](Cc2cccc(C(F)(F)F)c2)NC(=O)[C@H](CC(=O)O)NC(=O)[C@H](Cc2ccc(OCC(=O)O)cc2)NC(=O)[C@H](Cc2ccc(OCC(=O)O)cc2)NC(=O)CSC[C@@H](C(=O)N[C@@H](CCN)C(=O)NCCOCCOCC(=O)NCCOCCOCC(=O)N[C@H](CCC(=O)NCCCCCCCCCCCCCCC(=O)O)C(=O)O)NC(=O)[C@H](Cc2cnc[nH]2)NC(=O)[C@H](C(C)(C)O)NC(=O)[C@H](CC2CCCCC2)NC(=O)[C@H](CCN)NC1=O` [Example 2627] ({CH2CO}-Y(Carboxymethyl)Y(Carboxymethyl)D[Phe(3-CF3)]Y(Carboxymethyl)[Bip]Q[NMeA][dL][Dab][Cha][Val(3-OH)]HC[Dab][AEEA][AEEA][dE](NH(CH2)14COOH)-OH; thioether N-14), 0.164 µM.
As for `CC(C)C[C@H]1NC(=O)[C@H](C)N(C)C(=O)[C@H](CCC(N)=O)NC(=O)[C@H](Cc2ccc(-c3ccccc3)cc2)NC(=O)[C@H](Cc2ccc(OCC(=O)O)cc2)NC(=O)[C@H](Cc2cccc(C(F)(F)F)c2)NC(=O)[C@H](CC(=O)O)NC(=O)[C@H](Cc2ccc(OCC(=O)O)cc2)NC(=O)[C@H](C)NC(=O)CSC[C@@H](C(=O)N[C@@H](CCN)C(=O)NCCOCCOCC(=O)NCCOCCOCC(=O)N[C@H](CCC(=O)NCCCCCCCCCCCCCCC(=O)O)C(=O)O)NC(=O)[C@H](Cc2cnc[nH]2)NC(=O)[C@H](C(C)(C)O)NC(=O)[C@H](CC2CCCCC2)NC(=O)[C@H](CCN)NC1=O` [Example 2628] ({CH2CO}-AY(Carboxymethyl)D[Phe(3-CF3)]Y(Carboxymethyl)[Bip]Q[NMeA][dL][Dab][Cha][Val(3-OH)]HC[Dab][AEEA][AEEA][dE](NH(CH2)14COOH)-OH; thioether N-14), the IC50 turned out to be 0.247 µM.
`CC(C)C[C@H]1NC(=O)[C@H](C)N(C)C(=O)[C@H](CCC(N)=O)NC(=O)[C@H](Cc2ccc(-c3ccccc3)cc2)NC(=O)[C@H](Cc2ccc(OCC(=O)O)cc2)NC(=O)[C@H](Cc2cccc(C(F)(F)F)c2)NC(=O)[C@H](CC(=O)O)NC(=O)[C@H](Cc2ccc(OCC(=O)O)cc2)NC(=O)[C@H](C)NC(=O)CSC[C@@H](C(=O)N[C@@H](CCN)C(=O)NCCCCCCCCCCCCC(=O)O)NC(=O)[C@H](CCC(=O)O)NC(=O)[C@H](C(C)(C)O)NC(=O)[C@H](CC2CCCCC2)NC(=O)[C@H](CCN)NC1=O` [Example 2629] ({CH2CO}-AY(Carboxymethyl)D[Phe(3-CF3)]Y(Carboxymethyl)[Bip]Q[NMeA][dL][Dab][Cha][Val(3-OH)]EC[Dab]-{NH(CH2)12COOH}; thioether N-14): the 50% inhibitory concentration (IC50) was found to be 0.0306 µM.
